In patent US5770595A, “Oxime substituted therapeutic compounds” (Cell Therapeutics, Inc., priority 1994, dated 1998):

Columns and labels:
[1] = system: polymorphonuclear leukocytes; settings: in response to a stimulator of chemotaxis; U.S. Pat. No. 4,636,507; cited from earlier work
[2] = U.S. Pat. Nos. 4,515,795 and 4,576,947; cited from earlier work
murine thymocyte = assay: thymocyte proliferation stimulated by ConA and IL-2; format: cell-based, murine (female Balb/C mice); settings: ConA, IL-2 15 U/ml; FIG. 18 (IC50 curve)
Method: A thymocyte costimulator assay is conducted to evaluate the inventive compounds to inhibit activation and proliferation of thymocytes caused by stimulation with Con A and interleukin-1 (IL-1), or […]. Thymuses are obtained from mice (e.g., female Balb/C mice) and the thymuses are removed and dissociated into culture media (e.g., RPMI 1640 without serum supplementation). The dissociated thymus tissue and cell suspension is transferred to centrifuge tubes and allowed to settle, washed with HBSS and resuspended in serum-supplemented culture media (e.g., RPMI 1640 with 10% fetal calf serum). Any contaminating red cells are lysed, and viable cells are resuspended and counted. Thymocytes are plated (e.g., 96-well plates at a density of 2×10^5 cells/well) and a stimulating agent, such as Con A, IL-1 (e.g., IL-1α) or IL-2 is added to the well. The cells are incubated for 4 days at 37° C. On the fourth day, the cells are pulsed with tritiated thymidine and cell proliferation determined. […]
1522 on inhibition of thymocyte proliferation stimulated by ConA and interleukin-2 (IL-2) (20 ng/ml). Compound no. […]
Thymuses, obtained from normal, female Balb/C mice, were dissociated and plated into 96-well plates at a density of 2×10^5 cells/well. […] The amount of tritiated thymidine dye incorporated by the harvested cells was determined in a liquid scintillation counter. […]

[3] = system: PBMC (peripheral blood mononuclear cells); assay: two-way mixed lymphocyte reaction; format: cell-based, human; settings: Example 28; protocol similar to Example 10
Text: Various in vitro assays can be used to measure effects of the inventive compounds to module immune activity and have antitumor activity using a variety of cellular types. For example, a mixed lymphocyte reaction (MLR) provides a valuable screening tool to determine biological activity of each inventive compound. In the MLR, PBMCs (peripheral blood mononuclear cells) are obtained by drawing whole blood from healthy volunteers in a heparinized container and diluted with an equal volume of hanks balanced salt solution (HBSS). This mixture is layered on a sucrose density gradient, such as a Ficoll-Hypaque® gradient (specific gravity 1.08), and centrifuged at 1000×g for 25 minutes at room temperature or cooler. PBMC are obtained from a band at a plasma-Ficoll interface, separated and washed at least twice in a saline solution, such as HBSS. Contaminating red cells are lysed, such as by ACK lysis for 10 min at 37° C., and the PBMCs are washed twice in HBSS. The pellet of purified PBMCs is resuspended in complete medium, such as RPMI 1640 plus 20% human inactivated serum. Proliferative response of PBMC to allogeneic stimulation is determined in a two-way MLR performed in a 96-well microtiter plate. Briefly, approximately 10^5 test purified PBMC cells in 200 μl complete medium are co-cultured with approximately 10^5 autologous (control culture) or allogeneic (stimulated culture) PBMC cells, wherein the allogeneic cells are from HLA disparate individuals. Varying doses of compounds (drug) are added at the time of addition of cells to the microtiter plate. The cultures are incubated for 6 days at 37° C. in a 5% CO2 atmosphere. At the conclusion of the incubation tritiated thymidine is added (for example, 1 μCi/well of 40 to 60 Ci/mmole) and proliferation determined by liquid scintillation. counting.
Example 10 illustrates a mixed lymphocyte reaction of inventive compounds nos. 1521 and 1522 (see above for chemical name and structure). […] Both compounds nos. […]

[4] = system: THP-1 cells / TNFα-activated HUVEC; assay: THP-1 cell adhesion to TNFα-activated HUVEC; format: cell-based, human; settings: 0.1 to 10 μM
Text: This example illustrates inhibitive activity of inventive compound no. 2525 on THP-1 cell adhesion to TNFα-activated HUVEC. In an investigative assay, representative of the protocol employed in Example 23, HUVEC were stimulated with TNF α instead of IL-1β. As shown by results reported in FIG. 15, non-stimulated background adherence was approximately 1000 relative units, increasing to approximately 3000 under TNF stimulation.

VCAM in HUVEC cells = assay: cell surface expression of VCAM in HUVEC; format: cell-based, human; settings: protocol similar to Example 20; FIG. 17
Method: Drug inhibitory activity can also be measured by determining levels of vascular cell adhesion molecule (VCAM) in stimulated cells. Early passage human umbilical vein endothelial cells (HUVEC) (obtained from commercial suppliers such as Cell Systems, Inc. or Clonetics) are cultured in media (e.g., Hepes buffered media, Cell Systems) containing 10% fetal bovine serum, and supplemented with a stimulating agent, such as fibroblast growth factor (acidic FGF, Cell Systems, Inc.) or TNF. The cells are plated into wells of a microtiter plate (e.g., 5×10^4 per well) and allowed to incubate at 37° C. for 72 hrs. The resting cells are removed (e.g., 20-30 min treatment with 0.4% EDTA), washed in media (e.g., phosphate buffered saline plus 0.1% bovine serum albumin with 0.01% sodium azide) and labeled on ice with a monoclonal antibody ("first antibody") recognizing human VCAM (e.g., 1 μg of a murine monoclonal antibody recognizing human VCAM, Genzyme). After 60 min on ice, the cells are washed (preferably twice) with cold wash media and incubated with an antibody that recognizes the first antibody (e.g., 1 μg of goat anti-mouse IgG conjugated with phycoerythrin, CalTag, Inc.). After 30 min on ice, the cells are washed twice and analyzed on a flow cytometer (Coulter Elite®) at appropriate emission and excitation wavelengths (e.g., for phycoerytlrin use excitation at 488 nm and emission at 525 nm).
The cells were stimulated with human TNF-α (20 ng/ml) for 20 hours and then stained for immunofluorescence using a monoclonal antibody recognizing VCAM, followed by a goat anti-mouse antibody conjugated to phycoerythrin. The cells were analyzed for antibody binding using flow cytometry. […] 1521 and 1522 at the indicated drug concentrations.
This example was used to investigate inhibition of vascular cell adhesion molecule (VCAM) expression on HUVEC by inventive compound no. 2525. VCAM expression by endothelial cells is an early event in atherogenesis and multiple sclerosis, among other various autoimmune diseases. FIG. 17, a plot of percent surface expression versus concentration of compound no.

[5] = system: THP-1 cells / IL-1β-activated HUVEC; assay: THP-1 cell adhesion to IL-1β-activated HUVEC; format: cell-based, human; settings: IL-1β 10 ng/ml, 8 hours; between 1.0 and 10 μM
Method: This example illustrates inhibitive activity of inventive compound no. 2525 on THP-1 cell adhesion to IL-1β-activated HUVEC. In an investigative assay, HUVEC were stimulated with IL-1β (10 ng/ml), both in the absence and presence of varying concentrations of inventive compound for 8 hours in a 96-well microtiter plate. In the wellplate, human monocytic leukemia cell line THP-1 cells were added at 50,000 cells per well. The THP-1 cells were pre-incubated with BCECF, a fluorescence dye that can be use to measure cell number using a fluorescence plate reader. After 10 minutes at 37° C., the microtiter plate was inverted and spun at 900 rpm. The remaining adhering THP-1 cells were then analyzed. […] The inventive compound no.

ICAM in HUVEC cells = assay: cell surface expression of ICAM in HUVEC; format: cell-based; settings: human TNF-α 20 ng/ml, 20 hours
Method: 2525 to inhibit cell surface expression of ICAM in HUVEC cells. The cells were stimulated with human TNF-α (20 ng/ml) for 20 hours and then stained for immunofluorescence using a monoclonal antibody recognizing ICAM, followed by a goat anti-mouse antibody conjugated to phycoerythrin. The cells were analyzed for antibody binding using flow cytometry. FIG. 16 reports % surface expression, determined by analysis of mean fluorescence intensity of cells analyzed by flow cytometry, for compound no. 2525, at concentration shown. As reported, compound no.

CC(O)CCCCn1c(=O)c2c(ncn2C)n(C)c1=O (centres unmarked) [M1, 1-(5-hydroxyhexyl)-3,7-dimethylxanthine]
stimulation of chemotaxis in polymorphonuclear leukocytes [1]: stimulate chemotaxis in polymorphonuclear leukocytes | cerebral blood flow [2]: increasing cerebral blood flow

CC(CCCCCCCCCn1c(=O)c2c(ncn2C)n(C)c1=O)=NO [compound 2514]
inhibition of thymocyte proliferation, ConA + IL-2 (murine thymocyte): inhibit thymocyte proliferation and activation | proliferative response of lymphocytes in mixed lymphocyte reaction [3]: showed activity in this immune modulating activity assay procedure

CC(CCCCCCCCCCn1c(=O)c2c(ncn2C)n(C)c1=O)=NO [compound 2525]
inhibition of THP-1 adhesion to TNFα-activated HUVEC [4]: significantly inhibited THP-1 adhesion | inhibition of VCAM surface expression (VCAM in HUVEC cells): able to inhibit surface expression of VCAM | inhibition of THP-1 adhesion to IL-1β-activated HUVEC [5]: significantly inhibited THP-1 adhesion | inhibition of ICAM surface expression (ICAM in HUVEC cells): inhibited ICAM surface expression
